Results on 1 molecule are retold here after PMC10728220, “Novel 3-(pyrazol-4-yl)-2-(1H-indole-3-carbonyl)acrylonitrile derivatives induce intrinsic and extrinsic apoptotic death mediated P53 in HCT116 colon carcinoma” (Scientific Reports, 2023).

One test deals with CDK4. In words: RT-PCR gene expression, CDK4, in HCT116. The class given is cell-based, human. Conditions: HCT116, 6.76 µg/mL, 48 h, relative to untreated control. Here is the method: (§1) In this current research, relative gene expression related to apoptosis should be studied well because they were very interesting to understand the effect of our selected compound on this important biological process. HCT116 cells were treated with chalcone 7f (6.76µg/mL) for 48 h, and then subjected to qPCR analysis regarding control samples. The effect of chalcone 7f on the expression level of (Bax, p53, Bcl2, and CDK4) genes was assessed using the qPCR technique. […] As indicated in this schematic diagram, the expression of apoptotic genes (Bax and P53) was enhanced by the effect of chalcone 7f to reach (3.662, and 5.435) respectively, relative to the control.
(§2) Total RNA was extracted from the compound 7f-treated HCT116 cells and the untreated cells using the RNA Purification Kit GeneJET (Thermo scientific, ON, Canada) 0.1 µg of the extracted RNA was reverse transcribed into complementary DNA (cDNA) using High-Capacity cDNA Reverse Transcription Kit (Thermo Scientific, ON, Canada). qPCR was done using Brilliant SYBR Green qPCR master mix (Applied Biosystems, San Francisco, CA, USA) in One Step Plus Real-Time PCR System (Applied Biosystems, San Francisco, CA, USA). […] The relative gene expression was determined using the 2^−ΔΔCt equation after normalization to the expression of β-actin (housekeeping gene) (Qiagen, CA, USA)(10 pmol/µL)[85], [86]. […]

The test system of another test is Human caspase-9. Description: ELISA caspase 9 production in HCT116. The class given is cell-based. Conditions: HCT116 treated with 7f. How it is done: The compound 7f induced caspase 9 production in a dose–response approach. This was achieved by using the following concentrations of chalcone 7f (1.6, 3.1, 6.3, 12.5, 25, 50, 100 ng/ml). There was a continuing rise in the caspase 9 production level by increasing the concentrations regularly. Compound 7f was able to stimulate the production of caspase 9 by inducing a 21.43 ng/ml of caspase 9.
The quantitative measurements of Human caspases-3, -8, and -9 concentrations in HCT116 cell culture lysates were performed using ELISA assay. The protocols were followed up based on the manuscript instructions described in the following kits; Invitrogen human Caspase-3 Elisa Kit, Catalog # KHO1091, DRG® human Caspase-8 ELISA Kit, Catalog # (EIA-4863), and DRG® human Caspase-9 ELISA Kit, Catalog # (EIA-4860)respectively. In short, the procedure described in the above protocols was as instructed; all reagents, standards, and samples were prepared. Then, 100 μL of standard or samples were added to each well and incubated at room temperature for 2 h. […] All readings were measured immediately at a wavelength of 450 nm. From the readings of the standards, a standard curve was plotted using curve fitting software. Then, the concentrations for unknown samples and controls were measured from the standard curve.
For orientation: An ELISA detects its analyte on a solid surface through an enzyme-linked reagent.

A further test deals with HCT116 cells. In words: DNA fragmentation, agarose gel electrophoresis. It counts as cell-based, human. Conditions: HCT116, 6.76 µg/mL, 48 h, 2% agarose gel. How it is done: Both control and treated cells were incubated for 48h. Then cells of both two samples were harvested for DNA fragmentation measurements using a SIGMA DNA fragmentation imaging kit with catalogue number 06432344001. To verify the validity of the DNA of both control and cells treated with 6.76 µg/mL of chalcone 7f, we carried out the loading of all samples on 2% agarose gel containing 1 µg/mL ethidium bromide and visualized by ultraviolet transillumination.
The DNA gel electrophoresis laddering assay in the HCT116 cell line was performed according to the instructions of Yawata[87] with some modifications. Briefly, after 48 h of exposure of the HCT116 cancer cell line to compound 7f in Petri dishes (60 × 15 mm, Greiner), the cells were suspended in 1 ml of medium and then centrifuged at 900 rpm for 10 min. […] About 1 × 10^6 cells of HCT116 were treated with the IC50 value of compound 7f. Then, the treated cells were collected via trypsinization and washed with Dulbecco’s Phosphate Buffered Saline. Afterwards, the cells were treated with the lysis buffer (5 mM ethylenediaminetetraacetic acid (EDTA), 0.5% Triton X-100, 10 mM Tris (pH 7.4), and 150 mM NaCl) for 35 min on ice. […] At last, the fragmented DNA percentage was detected by performing gel electrophoresis using 2% agarose gel containing 0.1 μg/ml ethidium bromide (Supplementary File 1).

Another test relates to Bcl2. In words: RT-PCR gene expression, Bcl2, in HCT116. Conditions: HCT116, 6.76 µg/mL, 48 h, relative to untreated control. The class given is cell-based, human. How it is done:
as §1, §2

A further test has as its system Bax. In words: RT-PCR gene expression, Bax, in HCT116. The class given is cell-based, human. Conditions: HCT116, 6.76 µg/mL, 48 h, relative to untreated control. Here is the method:
as §1, §2

“Also recorded” adds a separate entry of the source.

`N#C/C(=C\c1cn(-c2ccccc2)nc1-c1ccc([N+](=O)[O-])cc1)C(=O)c1c[nH]c2ccccc12` [Compound 7f, (E)-2-(1H-Indole-3-carbonyl)-3-(3-(4-nitrophenyl)-1-phenyl-1H-pyrazol-4-yl)acrylonitrile]: the “RT-PCR fold change CDK4” value with CDK4 was determined as 0.454 fold. Moreover, in the test with Human caspase-9, the “caspase 9 production” value came to 21.43 ng/mL and the “caspase 9 production, fold increase compared to control cells” value was ~4.641 fold. Further, the “effect on genomic DNA (DNA fragmentation)” value in the test with HCT116 cells is reported as “completely deteriorated the genomic DNA; also recorded: completely degraded the genomic DNA”. In addition, in the test with Bcl2, the “RT-PCR fold change bcl2” value is given as 0.351 fold. Also, the “RT-PCR fold change Bax” value in the test with Bax is listed as 3.662 fold.
